Test results from patent US7632524B2, “Pharmaceutical preparations for the treatment of itch, nausea, hyperalgesia and the complications of opioid agonists” (priority 2002, dated 2009).

Key:
Type in all cases: in vivo
opioid-induced emesis = test: Ferret model of opioid (morphine-6-glucuronide)-induced emesis
Method: FIG. 1. Prevention of opioid-induced emesis by the Croton speceis extract, (Zangrado®). Emesis as measured by the number of vomiting and retching episodes per hour was induced by parenteral administration of the opioid narcotic, morphine-6-glucuronide (15 mg/kg) ip.
Sangre de Grado has also been used ethnomedically for the treatment of a variety of intestinal complications including diarrhea, ulcerations, cancer and emesis. Using a well-established ferret model of post-operative complications of emesis induced by morphine, Zangrado (CGO 110) was administered intraperitoneally (3 mg/kg) to ferrets 15 minutes prior to the administration of morphine-6-glucuronide (M6G), known to promote itching, retching and vomiting. The animals were monitored for sixty minutes.
As shown in FIG. 1 the subcutaneous injection of 0.05 mg/kg M6G caused a significant number of vomiting (2.2±0.4) and retching (10±1.2) incidences in the control group. In those animals treated with Zangrado (CGO 110), the number of these episodes was virtually abolished (vomiting 0.6±0.3; retching 2.2±0.7, P<0.05). Given the utility of this model to predict treatments for nausea and vomiting, Zangrado (CGO 110) contains active components and is effective in the treatment of emesis.

opioid-induced itch = test: Ferret model of opioid (morphine-6-glucuronide)-induced itch (licking)
Method: FIG. 2: FIG. 2. Prevention of opioid-induced itch by Zangrado. Itch, as measured by the number of licking episodes per hour, was induced by parenteral administration of the opioid narcotic, morphine-6-glucuronide (15 mg/kg) ip.
Zangrado (CGO 110) contains active components and is effective in the treatment of itch.

[1] = Body temperature and sedation at anti-emetic doses; settings: CGO 110 3 mg/kg
Description: As such, Zangrado represents a significant improvement in the treatment of emesis and itch.

Compound: Cc1c(C(=O)NN2CCCCC2)nn(-c2ccc(Cl)cc2Cl)c1-c1ccc(I)cc1 [AM251]
- effect on emesis in naïve animals (opioid-induced emesis): promotes emesis
- effect on licking in naïve animals (opioid-induced itch): promotes licking

Compound: Cc1c(C(=O)c2cccc3ccccc23)c2cccc3c2n1[C@H](CN1CCOCC1)CO3 [WIN 55, 212-2]
- effect on body temperature [1]: produces a drop in body temperature
- sedation [1]: significant sedation
